Assay results as given in patent US20100137305A1, “AMINOPYRIMIDINES USEFUL AS KINASE INHIBITORS” (VERTEX PHARMACEUTICALS INCORPORATED, priority 2008, published 2010).
Read-outs that look alike come from different tables or passages of the source.

Tests used:
[1] = target: T1, T315I mutant of human Abl (Homo sapiens, UniProt P00519, T315I); assay: Mutant Abl Kinase (T315I) Activity Inhibition Assay (Upstate, radiometric); type: biochemical
T1 construct: purchased Upstate Cell Signaling Solutions (Dundee, UK)

[2] = tested on: Colo205 cells; assay: Analysis of Cell Proliferation, 3H thymidine incorporation; type: cell-based; settings: Homo sapiens
In short: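 Serially diluted compound added in duplicate to Colo205 cells, 0.1% DMSO diluent control, incubated 72 or 96 hrs at 37C, 5% CO2. 0.5 μCi 3H thymidine added 3 h before end; incorporated radioactivity counted by beta-counter and dose-response curves fitted.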

[3] = target: T2, Aurora-2 (Aurora A) (Homo sapiens, UniProt O14965); assay: Aurora-2 (Aurora A) Inhibition Assay, coupled enzyme assay; type: biochemical; settings: 400 μM ATP, 30° C.; read-out: Aurora A kinase activity Ki
T2 sequence (O14965 1-403): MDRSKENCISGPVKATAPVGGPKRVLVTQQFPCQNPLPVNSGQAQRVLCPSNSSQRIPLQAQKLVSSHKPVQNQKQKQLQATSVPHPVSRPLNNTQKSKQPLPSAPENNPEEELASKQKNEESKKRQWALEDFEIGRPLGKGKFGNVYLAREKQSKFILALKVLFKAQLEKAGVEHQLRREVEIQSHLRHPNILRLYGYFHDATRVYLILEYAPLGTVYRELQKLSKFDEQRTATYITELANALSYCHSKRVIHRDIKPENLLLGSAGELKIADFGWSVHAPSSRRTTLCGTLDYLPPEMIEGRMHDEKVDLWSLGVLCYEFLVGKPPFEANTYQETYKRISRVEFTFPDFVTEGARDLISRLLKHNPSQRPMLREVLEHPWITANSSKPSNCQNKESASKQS
In short: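 Coupled pyruvate kinase/LDH assay (NADH read-out) with 40 nM Aurora-2, 400 μM ATP and 570 μM Kemptide in 100 mM Hepes pH 7.5, 10 mM MgCl2, at 30 °C. Compound preincubated 10 min (serial dilutions typically from 7.5 μM final); initial rates over 10 min, IC50 and Ki by non-linear regression.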

[4] = target: N-terminally truncated (Δ 27) Abl kinase (Homo sapiens, UniProt P00519); assay: Abl Kinase Activity Inhibition Assay, coupled enzyme system; type: biochemical; settings: 110 μM ATP, 30° C.
Method: Compounds were screened for their ability to inhibit N-terminally truncated (Δ 27) Abl kinase activity using a standard coupled enzyme system (Fox et al., Protein Sci., 7, pp. 2249 (1998)). Reactions were carried out in a solution containing 100 mM HEPES (pH 7.5), 10 mM MgCl2, 25 mM NaCl, 300 μM NADH, 1 mM DTT and 3% DMSO. Final substrate concentrations in the assay were 110 μM ATP (Sigma Chemicals, St Louis, Mo.) and 70 μM peptide (EAIYAAPFAKKK, American Peptide, Sunnyvale, Calif.). Reactions were carried out at 30° C. and 21 nM Abl kinase. Final concentrations of the components of the coupled enzyme system were 2.5 mM phosphoenolpyruvate, 200 μM NADH, 60 μg/ml pyruvate kinase and 20 μg/ml lactate dehydrogenase.
An assay stock buffer solution was prepared containing all of the reagents listed above with the exception of ATP and the test compound of interest. The assay stock buffer solution (60 μl) was incubated in a 96 well plate with 2 μl of the test compound of interest at final concentrations typically spanning 0.002 μM to 30 μM at 30° C. for 10 min. Typically, a 12 point titration was prepared by serial dilutions (from 1 mM compound stocks) with DMSO of the test compounds in daughter plates. The reaction was initiated by the addition of 5 μl of ATP (final concentration 110 μM). Rates of reaction were obtained using a Molecular Devices Spectramax plate reader (Sunnyvale, Calif.) over 10 min at 30° C. The Ki values were determined from the residual rate data as a function of inhibitor concentration using nonlinear regression (Prism 3.0, Graphpad Software, San Diego, Calif.).

[5] = target: Aurora-1 (Aurora B) (Homo sapiens, UniProt Q96GD4); assay: Aurora-1 (Aurora B) Inhibition Assay (radiometric); type: biochemical; settings: 800 μM ATP; read-out: Aurora B kinase activity Ki
Aurora-1 (Aurora B), sequence (Q96GD4 whole entry): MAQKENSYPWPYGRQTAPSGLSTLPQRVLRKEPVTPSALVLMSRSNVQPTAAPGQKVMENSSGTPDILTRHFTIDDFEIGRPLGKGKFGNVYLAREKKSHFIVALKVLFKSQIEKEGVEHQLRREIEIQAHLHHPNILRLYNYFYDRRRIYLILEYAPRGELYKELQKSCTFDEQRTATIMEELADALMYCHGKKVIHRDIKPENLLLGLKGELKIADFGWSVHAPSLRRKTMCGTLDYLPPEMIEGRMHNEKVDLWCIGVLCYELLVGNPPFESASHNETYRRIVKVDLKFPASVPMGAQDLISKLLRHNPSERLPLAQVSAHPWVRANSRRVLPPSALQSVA
In short: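 Enzyme at 22 nM in solution with 1.5 mM Kemptide (LRRASLG) in 25 mM HEPES pH 7.5, 10 mM MgCl2, 0.1% BSA, 10% glycerol, 1.7 mM DTT. Compound pre-equilibrated 10 min at 25° C, then [γ-33P]-ATP added at 800 μM final for 3 h. 33P peptide incorporation by phosphocellulose capture and scintillation counting. Ki from initial rates by non-linear regression.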

[6] = COLO 205, 72 h, 72 hours, read-out: IC50 cell proliferation after 72 hours
[7] = COLO 205, 96 h, 96 hours, read-out: IC50 cell proliferation after 96 hours

| Compound | Ki [1] | IC50 [2, 6] | IC50 [2, 7] | Ki [3] | Ki [4] | Ki [5] |
| --- | --- | --- | --- | --- | --- | --- |
| Cc1cc(Nc2cc(N3CCC(F)(F)C3)nc(Sc3ccc(NC(=O)CC(F)(F)F)cc3)n2)[nH]n1 [Compound I-27] | < 200 nM | 25 to 125 nM | 50 to 200 nM | ≤ 10 nM | 25 to 100 nM | 10 to 50 nM |
| Cc1cnc(Nc2cc(N3CC[C@@H](N(C)C)C3)nc(Sc3ccc(NC(=O)C4CC4)cc3)n2)s1 [Compound I-29] | < 200 nM |  | 50 to 200 nM | ≤ 10 nM | < 25 nM | 10 to 50 nM |
| Cc1cc(Nc2cc(N3CCC(N4CCC(F)C4)CC3)nc(Sc3ccc(NC(=O)CC(F)(F)F)cc3)n2)[nH]n1 (stereo not drawn) [Compound I-63] | < 200 nM | ≤ 25 nM |  | ≤ 10 nM | 25 to 100 nM | ≤ 10 nM |
| Cc1cc(Nc2cc(N3CCC(F)C3)nc(Sc3ccc(NC(=O)CC(F)(F)F)cc3)n2)[nH]n1 (stereo not drawn) [Compound I-71] | < 200 nM | ≤ 25 nM |  | ≤ 10 nM | 25 to 100 nM | ≤ 10 nM |
